# Results as given in ChEMBL document CHEMBL4819019, “Design, synthesis, antibacterial activity and toxicity of novel quaternary ammonium compounds based on pyridoxine and fatty acids” (Eur J Med Chem, 2021).
# What was measured:
# [1] = Genotoxicity in Salmonella typhimurium TA1535/pSK1002 assessed as DNA-damage activity by measuring beta-galactosidase activity at 750 ug/ml measured by SOS-chromotest relative to solvent control; assay type: toxicity; conditions: salmonella enterica subsp. enterica serovar typhimurium; dose 750 µg/ml
# [2] = Genotoxicity in Salmonella typhimurium TA1535/pSK1002 assessed as DNA-damage activity by measuring beta-galactosidase activity at 7.5 ug/ml measured by SOS-chromotest relative to solvent control; assay type: toxicity; conditions: salmonella enterica subsp. enterica serovar typhimurium; dose 7.5 µg/ml
# Klebsiella pneumoniae = experiment: Antibacterial activity against clinical isolate Klebsiella pneumoniae 1813 measured after 24 hrs by broth microdilution method; assay type: functional
# [3] = Lipophilicity, logP of the compound; assay type: physicochemical; conditions: octanol/water
# [4] = Genotoxicity in Salmonella typhimurium TA1535/pSK1002 assessed as DNA-damage activity by measuring beta-galactosidase activity at 15 ug/ml measured by SOS-chromotest relative to solvent control; assay type: toxicity; conditions: salmonella enterica subsp. enterica serovar typhimurium; dose 15 µg/ml
# Staphylococcus aureus [5] = experiment: Antibacterial activity against clinical isolate methicillin-resistant Staphylococcus aureus 713 measured after 24 hrs by broth microdilution method; assay type: functional
# Staphylococcus aureus [6] = experiment: Antibacterial activity against clinical isolate methicillin-resistant Staphylococcus aureus 1131 measured after 24 hrs by broth microdilution method; assay type: functional
# Enterococcus faecalis [7] = experiment: Antibacterial activity against clinical isolate Enterococcus faecalis 3063 measured after 24 hrs by broth microdilution method; assay type: functional
# Pseudomonas sp. = experiment: Antibacterial activity against clinical isolate Pseudomonas sp. 5 measured after 24 hrs by broth microdilution method; assay type: functional
# Staphylococcus aureus [8] = experiment: Antibacterial activity against clinical isolate methicillin-resistant Staphylococcus aureus 1053 measured after 24 hrs by broth microdilution method; assay type: functional
# Staphylococcus aureus [9] = experiment: Antibacterial activity against clinical isolate methicillin-resistant Staphylococcus aureus 983 measured after 24 hrs by broth microdilution method; assay type: functional
# [10] = Genotoxicity in Salmonella typhimurium TA1535/pSK1002 assessed as DNA-damage activity by measuring beta-galactosidase activity at 75 ug/ml measured by SOS-chromotest relative to solvent control; assay type: toxicity; conditions: salmonella enterica subsp. enterica serovar typhimurium; dose 75 µg/ml
# Escherichia coli [11] = experiment: Antibacterial activity against clinical isolate Escherichia coli 718 measured after 24 hrs by broth microdilution method; assay type: functional
# Proteus sp. = experiment: Antibacterial activity against clinical isolate Proteus sp. 17 measured after 24 hrs by broth microdilution method; assay type: functional; conditions: Proteus sp. (in: enterobacteria)
# [12] = Genotoxicity in Salmonella typhimurium TA100 assessed as number of revertant by Ames spot test relative to solvent control; assay type: toxicity; conditions: salmonella enterica subsp. enterica serovar typhimurium
# Staphylococcus aureus [13] = experiment: Antibacterial activity against Staphylococcus aureus ATCC 29213 measured after 24 hrs by broth microdilution method; assay type: functional
# [14] = tested on: Staphylococcus intermedius; experiment: Antibacterial activity against clinical isolate methicillin-resistant Staphylococcus intermedius 1143 measured after 24 hrs by broth microdilution method; assay type: functional
# Pseudomonas aeruginosa [15] = experiment: Antibacterial activity against clinical isolate Pseudomonas aeruginosa 1945 measured after 24 hrs by broth microdilution method; assay type: functional
# Pseudomonas aeruginosa [16] = experiment: Antibacterial activity against Pseudomonas aeruginosa ATCC 27853 measured after 24 hrs by broth microdilution method; assay type: functional
# [17] = tested on: Staphylococcus intermedius; experiment: Antibacterial activity against clinical isolate methicillin-resistant Staphylococcus intermedius 1061 measured after 24 hrs by broth microdilution method; assay type: functional
# [18] = tested on: Staphylococcus ureilyticus; experiment: Antibacterial activity against clinical isolate Staphylococcus ureilyticus 1972 measured after 24 hrs by broth microdilution method; assay type: functional
# [19] = Cytotoxicity against human mesenchymal stem cells assessed as cell viability measured after 72 hrs by MTT assay; assay type: cell-based
# Staphylococcus aureus [20] = experiment: Antibacterial activity against clinical isolate Staphylococcus aureus 25 measured after 24 hrs by broth microdilution method; assay type: functional
# Staphylococcus aureus [21] = experiment: Antibacterial activity against clinical isolate methicillin-resistant Staphylococcus aureus 1065 measured after 24 hrs by broth microdilution method; assay type: functional
# [22] = Cytotoxicity against human HEK293 cells assessed as cell viability measured after 72 hrs by MTT assay; assay type: cell-based
# Bacillus subtilis = experiment: Antibacterial activity against Bacillus subtilis 168 measured after 24 hrs by broth microdilution method; assay type: functional
# Escherichia coli [23] = experiment: Antibacterial activity against Escherichia coli MG 1655 measured after 24 hrs by broth microdilution method; assay type: functional
# [24] = Genotoxicity in Salmonella typhimurium TA1535/pSK1002 assessed as DNA-damage activity by measuring beta-galactosidase activity at 150 ug/ml measured by SOS-chromotest relative to solvent control; assay type: toxicity; conditions: salmonella enterica subsp. enterica serovar typhimurium; dose 150 µg/ml
# [25] = Genotoxicity in Salmonella typhimurium TA98 assessed as number of revertant by Ames spot test relative to solvent control; assay type: toxicity; conditions: salmonella enterica subsp. enterica serovar typhimurium
# [26] = Cytotoxicity against human skin fibroblasts assessed as cell viability measured after 72 hrs by MTT assay; assay type: cell-based, Fibroblast
# [27] = Genotoxicity in Salmonella typhimurium TA1537 assessed as number of revertant by Ames spot test relative to solvent control; assay type: toxicity; conditions: salmonella enterica subsp. enterica serovar typhimurium
# [28] = Genotoxicity in Salmonella typhimurium TA1535 assessed as number of revertant by Ames spot test relative to solvent control; assay type: toxicity; conditions: salmonella enterica subsp. enterica serovar typhimurium
# Acinetobacter sp. = experiment: Antibacterial activity against clinical isolate Acinetobacter sp. 3 measured after 24 hrs by broth microdilution method; assay type: functional
# Moraxella = experiment: Antibacterial activity against clinical isolate Moraxella 765 measured after 24 hrs by broth microdilution method; assay type: functional
# Micrococcus luteus = experiment: Antibacterial activity against Micrococcus luteus clinical isolate measured after 24 hrs by broth microdilution method; assay type: functional
# Enterococcus faecalis [29] = experiment: Antibacterial activity against clinical isolate Enterococcus faecalis 23 measured after 24 hrs by broth microdilution method; assay type: functional
# Serratia marcescens = experiment: Antibacterial activity against clinical isolate Serratia marcescens 1966 measured after 24 hrs by broth microdilution method; assay type: functional
# Klebsiella sp. = experiment: Antibacterial activity against clinical isolate Klebsiella sp. 11 measured after 24 hrs by broth microdilution method; assay type: functional
Structure (SMILES),Ratio [1],Ratio [2],MIC (Klebsiella pneumoniae) [µg/mL],logP [3],Ratio [4],MIC (Staphylococcus aureus [5]) [µg/mL],MIC (Staphylococcus aureus [6]) [µg/mL],MIC (Enterococcus faecalis [7]) [µg/mL],MIC (Pseudomonas sp.) [µg/mL],MIC (Staphylococcus aureus [8]) [µg/mL],MIC (Staphylococcus aureus [9]) [µg/mL],Ratio [10],MIC (Escherichia coli [11]) [µg/mL],MIC (Proteus sp.) [µg/mL],Ratio [12],MIC (Staphylococcus aureus [13]) [µg/mL],MIC (Pseudomonas aeruginosa [16]) [µg/mL],MIC (Bacillus subtilis) [µg/mL],MIC (Escherichia coli [23]) [µg/mL],MIC (Micrococcus luteus) [µg/mL],other results
CCCCCCCCCCCCCC(=O)OCC[N+](C)(C)Cc1cnc(C)c2c1COC(C)(C)O2.[Cl-],0.4,1.6,64,2.14,1.6,8,16,4,64,8,64,1.2,32,> 64,1.4,0.5,1,1,8,0.5,MIC [14]: 8 µg/mL; MIC (Pseudomonas aeruginosa [15]): 64 µg/mL; MIC [17]: 8 µg/mL; MIC [18]: > 64 µg/mL; CC50 at 72 h [19]: 1.08 µg/mL; MIC (Staphylococcus aureus [20]): 8 µg/mL; MIC (Staphylococcus aureus [21]): 8 µg/mL; CC50 at 72 h [22]: 0.17 µg/mL; Ratio [24]: 0.6; Ratio [25]: 4.6; CC50 at 72 h [26]: 1.94 µg/mL; Ratio [27]: 0.02; Ratio [28]: 0.9; MIC (Acinetobacter sp.): 64 µg/mL; MIC (Moraxella): 64 µg/mL; MIC (Enterococcus faecalis [29]): 4 µg/mL; MIC (Serratia marcescens): 64 µg/mL; MIC (Klebsiella sp.): 64 µg/mL
CCCCCCCCCCCC(=O)OCCC[N+](C)(C)Cc1cnc(C)c2c1COC(CCC)O2.[Cl-] (centres undefined),0.5,1.4,> 64,2.14,1.4,16,16,4,32,8,32,1.5,8,> 64,2.4,2,32,2,4,1,MIC [14]: 16 µg/mL; MIC (Pseudomonas aeruginosa [15]): > 64 µg/mL; MIC [17]: 16 µg/mL; MIC [18]: > 64 µg/mL; CC50 at 72 h [19]: 2.42 µg/mL; MIC (Staphylococcus aureus [20]): 8 µg/mL; MIC (Staphylococcus aureus [21]): 16 µg/mL; CC50 at 72 h [22]: 2.15 µg/mL; Ratio [24]: 1.1; Ratio [25]: 1.8; CC50 at 72 h [26]: 4.32 µg/mL; Ratio [27]: 0.03; Ratio [28]: 0.5; MIC (Acinetobacter sp.): 64 µg/mL; MIC (Moraxella): 64 µg/mL; MIC (Enterococcus faecalis [29]): 4 µg/mL; MIC (Serratia marcescens): > 64 µg/mL; MIC (Klebsiella sp.): 32 µg/mL
CCCCCCCCCCCCCC(=O)NCCC[N+](C)(C)Cc1cnc(C)c2c1COC(C)(C)O2.[Cl-],1,1.5,,1.47,1.5,,,,,,,0.7,,,2.5,0.5,8,2,8,1,CC50 at 72 h [19]: 2.21 µg/mL; CC50 at 72 h [22]: 1.61 µg/mL; Ratio [24]: 0.5; Ratio [25]: 2.6; CC50 at 72 h [26]: 3.14 µg/mL; Ratio [27]: 0.03; Ratio [28]: 0.4
CCCCCCCCCCCCCC(=O)OCC[N+](C)(C)Cc1cnc(C)c2c1COC(CCC)O2.[Cl-] (centres undefined),0.3,1.4,64,2.97,1.5,2,4,4,64,2,64,1.5,32,> 64,1.2,0.5,1,4,16,0.5,MIC [14]: 4 µg/mL; MIC (Pseudomonas aeruginosa [15]): > 64 µg/mL; MIC [17]: 2 µg/mL; MIC [18]: > 64 µg/mL; CC50 at 72 h [19]: 1.28 µg/mL; MIC (Staphylococcus aureus [20]): 2 µg/mL; MIC (Staphylococcus aureus [21]): 2 µg/mL; CC50 at 72 h [22]: 1 µg/mL; Ratio [24]: 1.3; Ratio [25]: 4.7; CC50 at 72 h [26]: 2.18 µg/mL; Ratio [27]: 0.04; Ratio [28]: 0.4; MIC (Acinetobacter sp.): 64 µg/mL; MIC (Moraxella): 64 µg/mL; MIC (Enterococcus faecalis [29]): 4 µg/mL; MIC (Serratia marcescens): > 64 µg/mL; MIC (Klebsiella sp.): 32 µg/mL
CCCCCCCCCCCCCC(=O)OCC[N+](C)(C)Cc1nc(C)c2c(c1CO)COC(C)(C)O2.[Cl-],0.3,1.8,2,1.46,1.6,2,4,2,64,2,32,1.2,32,> 64,2.1,1,> 64,0.5,32,1,MIC [14]: 4 µg/mL; MIC (Pseudomonas aeruginosa [15]): 64 µg/mL; MIC [17]: 4 µg/mL; MIC [18]: > 64 µg/mL; CC50 at 72 h [19]: 1.02 µg/mL; MIC (Staphylococcus aureus [20]): 2 µg/mL; MIC (Staphylococcus aureus [21]): 4 µg/mL; CC50 at 72 h [22]: 0.88 µg/mL; Ratio [24]: 0.9; Ratio [25]: 2.5; CC50 at 72 h [26]: 2.24 µg/mL; Ratio [27]: 0.05; Ratio [28]: 0.4; MIC (Acinetobacter sp.): 64 µg/mL; MIC (Moraxella): 64 µg/mL; MIC (Enterococcus faecalis [29]): 2 µg/mL; MIC (Serratia marcescens): > 64 µg/mL; MIC (Klebsiella sp.): 64 µg/mL
CCCCCCCCCCCCCCCCCC(=O)NCCC[N+](C)(C)Cc1cnc(C)c2c1COC(C)(C)O2.[Cl-],,,> 64,3.25,,16,16,4,64,8,64,,> 64,> 64,,4,8,8,> 64,4,MIC [14]: 16 µg/mL; MIC (Pseudomonas aeruginosa [15]): > 64 µg/mL; MIC [17]: 8 µg/mL; MIC [18]: > 64 µg/mL; MIC (Staphylococcus aureus [20]): 8 µg/mL; MIC (Staphylococcus aureus [21]): 8 µg/mL; MIC (Acinetobacter sp.): 64 µg/mL; MIC (Moraxella): > 64 µg/mL; MIC (Enterococcus faecalis [29]): 4 µg/mL; MIC (Serratia marcescens): > 64 µg/mL; MIC (Klebsiella sp.): 64 µg/mL
CCCCCCCCCCCCCC(=O)NCC[N+](C)(C)Cc1cnc(C)c2c1COC(C)(C)O2.[Cl-],0.4,1.5,4,1.41,1.5,4,16,2,64,4,64,0.7,32,> 64,1.3,2,2,4,8,4,MIC [14]: 4 µg/mL; MIC (Pseudomonas aeruginosa [15]): 64 µg/mL; MIC [17]: 4 µg/mL; MIC [18]: 64 µg/mL; CC50 at 72 h [19]: 2.16 µg/mL; MIC (Staphylococcus aureus [20]): 4 µg/mL; MIC (Staphylococcus aureus [21]): 8 µg/mL; CC50 at 72 h [22]: 1.18 µg/mL; Ratio [24]: 0.5; Ratio [25]: 1.7; CC50 at 72 h [26]: 3.03 µg/mL; Ratio [27]: 0.06; Ratio [28]: 0.8; MIC (Acinetobacter sp.): 64 µg/mL; MIC (Moraxella): 64 µg/mL; MIC (Enterococcus faecalis [29]): 2 µg/mL; MIC (Serratia marcescens): 64 µg/mL; MIC (Klebsiella sp.): 64 µg/mL
